Data on 16 compounds can be found in PubChem BioAssay (NCI).

Several values for one entry are separate records, joined by “and”; a condition that tells them apart may be missing. Equal values may be shown once.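 A five-concentration, 48-hour dose response in 96-well plates underlies each endpoint, interpolated linearly between surrounding concentrations. At the GI50, growth is halved. TGI: concentration producing complete growth inhibition.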 Bounds are passed on as bounds.

Assay in all cases: NCI tumour cell line growth inhibition, 48 h
Assay [1] deals with ACHN renal.
For assay [2], the system named is UO-31 renal.
The subject of assay [3] is OVCAR-5 ovarian.
In assay [4] the test system is MALME-3M melanoma.
The test system of assay [5] is PC-3 prostate.
The test system of assay [6] is U251 CNS.
For assay [7], the system named is UACC-62 melanoma.
Assay [8] concerns M14 melanoma.
Assay [9] relates to K-562 leukemia.
The subject of assay [10] is HCT-15 colon.

Regarding `Cc1ccc2c(-c3ccnc(Nc4cccc(C(F)(F)F)c4)n3)c(-c3ccccc3)nn2n1`, the GI50 is 1.97 µM in assay [1]; 1160 nM in assay [2]; 10.2 µM in [3]; over 16400 nM in assay [4]; over 13 µM in assay [5]; 10.3 µM in assay [6]. In addition, the GI50 was 6.38 µM in assay [7], 10.5 µM in [8], over 25 µM in [9] and 5.34 µM in assay [10]. Moreover, the TGI in assay [1] was over 25 µM; in assay [2], over 25 µM; in assay [3], 24.6 µM; in [4], over 22.8 µM; in [5], over 25 µM; in [6], over 25 µM. Moreover, the TGI in [7] was over 16.1 µM; in assay [8] it was over 17.2 µM; in [9] it was over 25 µM; in [10], over 19 µM.

Regarding `CC[C@@]1(O)C(=O)OCc2c1cc1n(c2=O)Cc2cc3cc(O)ccc3nc2-1`, the TGI in assay [1] was 0.457 µM; in [2], 0.204 µM and 0.135 µM; in [4], 1.45 µM and 0.877 µM; in assay [5] it was over 100 µM; in assay [6], 0.0327 µM; in [7], 0.0795 µM and 0.0565 µM. The TGI in [8] is 1.39 µM; in assay [9], 24.7 µM and > 46.5 µM; in assay [10] it was 20.8 µM and 42.5 µM. Further, the GI50 in assay [2] is 31.1 nM and 19.5 nM; in assay [3], 0.122 µM; in assay [4], 56.7 nM; in assay [9] it was 0.0419 µM and 0.0427 µM; in assay [10], 0.355 µM.

For `N#Cc1c(-c2ccccc2)nc(SCC(O)CN2CCOCC2)nc1N1CCOCC1` (centres undefined), the GI50 is 10.8 µM in assay [1]; 1540 nM in [2]; 19 µM in assay [3]; 4730 nM in [4]; 2.42 µM in assay [5]; 24.4 µM in assay [6]. Moreover, the GI50 in assay [7] is 3.55 µM; in assay [8], 50 µM; in assay [9] it was 20 µM; in [10], 9.16 µM. The TGI in [1] is over 100 µM; in assay [2], over 100 µM; in assay [3], over 100 µM; in assay [4], over 100 µM; in [5], 7.7 µM; in assay [6], over 100 µM. Moreover, the TGI in [7], in assay [8], in assay [9] and in assay [10] was over 100 µM throughout.

For the compound `Cc1ncnc2c1ccn2[C@@H]1C[C@H](Oc2cc(C(F)F)c(F)c3c2CNCC3)[C@@H](O)[C@H]1O`, the GI50 in assay [1] is over 100 µM; in assay [2] it was over 100000 nM; in assay [3], over 100 µM; in [4] it was over 100000 nM; in assay [5], over 100 µM; in assay [6] it was over 100 µM. The GI50 in assay [7], in assay [8], in assay [9] and in assay [10] was over 100 µM each time. The TGI in assay [1], in [2], in assay [3], in assay [4], in [5] and in assay [6] was over 100 µM each time. Moreover, the TGI in [7], in [8], in assay [9] and in assay [10] was over 100 µM each time.

As to `CC[C@]1(O)CC2CN(CCc3c([nH]c4ccccc34)C(C(=O)OC)(c3cc4c(cc3OC)N(C=O)[C@H]3[C@@](O)(C(=O)OC)[C@H](OC(C)=O)[C@]5(CC)[C@@H]6C[C@@H]6CN6CC[C@]43[C@@H]65)C2)C1` (some centres undefined), the GI50 was 0.0139 µM in assay [1]; 173 nM in assay [2]; under 0.00325 µM in [3]; 104 nM in [4]; under 0.00325 µM in assay [5]; under 0.00325 µM in [6]. Besides, the GI50 in assay [7] is under 0.00325 µM; in [8], under 0.00325 µM; in assay [9] it was under 0.00325 µM; in assay [10], 0.0365 µM. Also, the TGI in assay [1] is over 23.5 µM; in [2], over 19.4 µM; in [3] it was over 32.5 µM; in [4] it was 17.9 µM; in assay [5], over 12.3 µM; in assay [6], 0.146 µM. Also, the TGI in assay [7] is over 21 µM; in assay [8] it was 0.00478 µM; in [9], 4.84 µM; in assay [10], over 32.5 µM.

Take `CCc1nc(N)nc(N)c1-c1ccc(N2CCNCC2)c([N+](=O)[O-])c1`: the TGI in [1] was over 100 µM; in assay [2] it was over 100 µM; in [3], over 100 µM; in assay [4], 37.3 µM; in [5], over 100 µM; in [6], over 100 µM. Further, the TGI in assay [7] was over 100 µM; in [8] it was 31.9 µM; in assay [9], over 90.2 µM; in assay [10], over 100 µM.

As for `O=C(Nc1nc2ccc(OC(F)(F)F)cc2s1)c1ccc(F)cc1`, the GI50 was 2.4 µM in assay [1]; 3440 nM in [2]; 3.62 µM in assay [3]; 2930 nM in [4]; 2.81 µM in [5]; 3.98 µM in assay [6]. Also, the GI50 in [7] was 3.59 µM; in assay [8] it was 4.4 µM; in assay [9] it was 3.58 µM; in assay [10] it was 3.04 µM. Further, the TGI in [1] was 6.18 µM; in assay [2], over 100 µM; in assay [3] it was 27.6 µM; in assay [4], 8.06 µM; in assay [5], 8.7 µM; in assay [6], over 100 µM. Moreover, the TGI in assay [7] was 50.3 µM; in assay [8] it was over 100 µM; in assay [9], over 100 µM; in assay [10] it was 10.5 µM.

Take `CCN(CC)CCOc1ccc2c(-c3ccccc3)c(-c3ccc(OC)cc3)c(=O)oc2c1`: the GI50 in assay [1] is 6.82 µM; in assay [2] it was 1650 nM; in assay [3] it was 12 µM; in assay [4] it was 1280 nM; in [5] it was 4.19 µM; in assay [6], 4.51 µM. Further, the GI50 in [7] is 3.82 µM; in [8], 1.94 µM; in assay [9], 2.55 µM; in assay [10], 2.64 µM. For the same compound, the TGI is 20.1 µM in assay [1]; 5.55 µM in [2]; 24.9 µM in assay [3]; 3.08 µM in assay [4]; 18.3 µM in assay [5]; 20.9 µM in [6]. For the same compound, the TGI in [7] turned out to be 15 µM; in assay [8] it was 3.66 µM; in assay [9], 10.5 µM; in assay [10], 8.18 µM.

`O=C1NC(=NCCc2ccccc2F)S/C1=C\c1ccc2ncccc2c1`: the GI50 was 9.06 µM in assay [1]; 6910 nM in [2]; over 20.4 µM in assay [3]; 11400 nM in assay [4]; 13.4 µM in assay [5]; 4.69 µM in assay [6]. Also, the GI50 in assay [7] was 7.1 µM; in [8] it was 8.42 µM; in [9], 2.78 µM; in assay [10], 1.84 µM. Also, the TGI in [1], in assay [2], in assay [3], in [4], in [5] and in [6] was over 25 µM each time. Also, the TGI in [7], in [8], in [9] and in [10] was over 25 µM in each case.

On to `COC(=O)COc1ccccc1/C=C1/N=C(c2ccccc2)N(c2c(C)n(C)n(-c3ccccc3)c2=O)C1=O`, for which the GI50 in assay [1] was over 100 µM; in [2], over 100000 nM; in assay [3] it was over 100 µM; in assay [4] it was over 100000 nM; in [5], over 100 µM; in assay [6] it was over 100 µM. For the same compound, the GI50 in assay [7] is 83.9 µM; in assay [8] it was over 100 µM; in assay [9] it was 75.1 µM; in assay [10], over 100 µM. For the same compound, the TGI in assay [1], in [2], in assay [3], in assay [4], in assay [5] and in [6] was over 100 µM in each case. In addition, the TGI in [7], in assay [8], in [9] and in assay [10] was over 100 µM in each case.

`Nc1nc(N)c2c(Cl)c(CNc3ccc(Cl)c(Cl)c3)ccc2n1`: the TGI was 14 µM in assay [1]; 10.3 µM in assay [2]; 12.1 µM in assay [3]; 12.8 µM in assay [4]; 12.7 µM in assay [5]; 11.2 µM in [6]. Further, the TGI in assay [7] was 13.7 µM; in assay [8], 3.87 µM; in [9], 2.97 µM; in [10], 13.6 µM.

As for `COC(=O)NC1=Nc2ccccc2C(=O)NN1`, the TGI in assay [1], in assay [2], in [3], in assay [4], in [5] and in [6] was over 100 µM in each case. In addition, the TGI in assay [7], in [8], in assay [9] and in assay [10] was over 100 µM throughout.

Regarding `O=C(O)c1cc(-c2ccc(-c3ccccc3)cc2)nc2cc3ccccc3cc12`, the TGI in [1], in [2], in [3], in [4], in assay [5] and in [6] was over 100 µM throughout. Further, the TGI in [7], in [8], in [9] and in [10] was over 100 µM in each case.

On to `COc1cc2c3c(n(CCCNCCCCN)c(=O)c2cc1OC)-c1cc2c(cc1C3=O)OCO2`, for which the GI50 was 0.163 µM in [1]; 7390 nM in [2]; 13.5 µM in [3]; 1660 nM in assay [4]; 4.51 µM in assay [5]; 0.234 µM in assay [6]. The GI50 in assay [7] is 2.1 µM; in [8], 9.19 µM; in [9], 4.1 µM; in assay [10], 17.5 µM. In addition, the TGI in assay [1] was 16.6 µM; in assay [2], over 58.5 µM; in assay [3] it was 41 µM; in assay [4] it was 7.32 µM; in [5], 26 µM; in assay [6], 6.54 µM. Also, the TGI in assay [7] was 11.3 µM; in assay [8], 27.6 µM; in [9], over 100 µM; in assay [10], over 54.4 µM.

With `CC1(C)CCC2(C(=O)O)C(O)CC3(C)C(=CCC4C5(C)CCC(OC6OCC(O)C(O)C6OC6OCC(O)C(O)C6OC6OCC(O)C(OC7OC(CO)C(O)C(O)C7O)C6O)C(C)(C)C5CCC43C)C2C1` (centres undefined), the TGI was over 100 µM in assay [1]; 35.3 µM in assay [2]; over 100 µM in [3]; 78.4 µM in assay [4]; over 100 µM in assay [5]; over 100 µM in assay [6]. The TGI was over 100 µM in assay [7], over 100 µM in assay [8], 70.6 µM in assay [9] and over 100 µM in assay [10].

`c1ccc(C2=Nc3ccccc3N3CNN=C23)cc1`: the GI50 in assay [1] is over 100 µM; in assay [2], over 100000 nM; in assay [3], over 100 µM; in assay [4], over 100000 nM; in assay [5], over 100 µM; in assay [6], over 100 µM. In addition, the GI50 in assay [7] was over 100 µM; in [8], over 100 µM; in [9], 90.1 µM; in assay [10] it was 90.6 µM. In addition, the TGI in [1], in assay [2], in assay [3], in [4], in assay [5] and in assay [6] was over 100 µM each time. For the same compound, the TGI in assay [7], in [8], in [9] and in [10] was over 100 µM throughout.
